In patent US9290476B2, “Methylene linked quinolinyl modulators of RORγt” (Janssen Pharmaceutica NV, priority 2012, dated 2016):
Counter-ions that a name gives are not always drawn.

Experiments:
human RORγt LBD = human RORγt LBD (Homo sapiens (Human), UniProt P51449); test: RORγt reporter assay (GAL4-RORγt LBD luciferase in HEK293T cells); type: cell-based; conditions: for IC50 / RORγt reporter Assay, % inhibition @ 6 μM: HEK293T cells; for IC50: 24 hours compound treatment; for inhibition at 6 µM: HEK-293T, read-out: RORγt reporter Assay, % inhibition @ 6 μM, HEK293T cells, 6 μM
Text: A reporter assay was used to test functional activity of RORγt modulatory compounds on transcriptional activation driven by the RORγt LBD. Cells used in the assay were co-transfected with two constructs. The first construct, pBIND-RORγt LBD, contained the wild type human RORγt LBD fused to the DNA binding domain of the GAL4 protein. The second construct, pGL4.31 (Promega Cat no. C935A), contained multiple GAL4 responsive DNA elements upstream of firefly luciferase. […] The mutant construct was called pBIND-RORγt-AF2.
The pBIND vector contains the GAL4 DNA Binding Domain (GAL4 DBD) and the renilla luciferase gene under control of the SV40 promoter. Renilla luciferase expression serves as a control for transfection efficiency and cell viability.
The reporter assay was performed by transiently transfecting HEK293T cells with 5 ng of pBIND-RORγt LBD or pBIND-RORγt LBD-AF2 and 5 μg pGL4.31 (Promega Cat no. C935A) using Fugene 6 ([…] Cat no. E2691) at a 1:6 ratio of DNA: Fugene 6 in a T-75 flask in which cells were at least 80% confluent. Twenty four hours after bulk transfection, cells were plated into 96-well plates at 50,000 cells/well in phenol-red free DMEM containing 5% Lipid Reduced FCS and Pen/Strep. Six hours after plating, cells were treated with compounds for 24 hours. Media was removed and cells were lysed with 50 μL 1× Glo Lysis Buffer (Promega). Dual Glo Luciferase Reagent (50 μL/well) was then added and firefly luciferase luminescence was read on an Envision after a ten minute incubation. Finally, Stop and Glo reagent (50 μL/well) was added and renilla luciferase luminescence was read on an Envision after a ten minute incubation. To calculate the effect of compounds on RORγt activity, the ratio of firefly to renilla luciferase was determined and plotted against compound concentration. Agonist compounds increase RORγt-driven luciferase expression, and antagonist or inverse agonist compounds decrease luciferase expression.

[1] = biological target: human RORγt ligand binding domain (RORγt LBD) (Homo sapiens (Human), UniProt P51449); test: RORγt ThermoFluor assay (thermal shift binding affinity); conditions: estimated from thermal shift
Description: This approach is applicable to a wide variety of systems, and rigorous in theoretical interpretation through quantitation of equilibrium binding constants (KD).
The shift in the melting point described as a ΔTm is proportional to the concentration and affinity of the ligand.
RORγt ThermoFluor® Assay Construct
Protein and compound solutions are dispensed into black 384-well polypropylene PCR microplates (Abgene) and overlayed with silicone oil (1 μL, Fluka, type DC 200) to prevent evaporation.
Bar-coded assay plates are robotically loaded onto a thermostatically controlled PCR-type thermal block and then heated at a typical ramp-rate of 1° C./min for all experiments. Fluorescence was measured by continuous illumination with UV light (Hamamatsu LC6) supplied via fiber optic and filtered through a band-pass filter (380-400 nm; >6 OD cutoff). Fluorescence emission of the entire 384-well plate was detected by measuring light intensity using a CCD camera (Sensys, Roper Scientific) filtered to detect 500±25 nm, resulting in simultaneous and independent readings of all 384 wells. Images were collected at each temperature, and the sum of the pixel intensity in a given area of the assay plate was recorded versus temperature. Reference wells contained RORγt without compounds, and the assay conditions were as follows: • 0.065 mg/mL RORγt • 60 μM 1,8-ANS • 100 mM Hepes, pH 7.0 • 10 mM NaCl • 2.5 mM GSH • 0.002% Tween-20
Project compounds were arranged in a pre-dosed mother plate (Greiner Bio-one) wherein compounds are serially diluted in 100% DMSO by 1:2 from a high concentration of 10 mM over 12 columns within a series (column 12 is a reference well containing DMSO, no compound). The compounds were robotically dispensed directly into assay plates (1×=46 nL) using a Hummingbird capillary liquid handling instrument (Digilab). Following compound dispense, protein and dye in buffer was added to achieve the final assay volume of 3 μL, followed by 1 μL of silicone oil.

human RORγt LBD, sequence (P51449 258-518): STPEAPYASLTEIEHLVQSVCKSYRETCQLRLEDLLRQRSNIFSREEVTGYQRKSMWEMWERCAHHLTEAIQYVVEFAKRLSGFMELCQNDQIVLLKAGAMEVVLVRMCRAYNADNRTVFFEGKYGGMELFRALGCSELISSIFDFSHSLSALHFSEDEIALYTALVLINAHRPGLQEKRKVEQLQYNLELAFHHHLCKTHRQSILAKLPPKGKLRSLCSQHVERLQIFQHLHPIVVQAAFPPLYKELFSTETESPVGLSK
human RORγt ligand binding domain (RORγt LBD), sequence (P51449 other isoform, or with tags, fused parts or gaps): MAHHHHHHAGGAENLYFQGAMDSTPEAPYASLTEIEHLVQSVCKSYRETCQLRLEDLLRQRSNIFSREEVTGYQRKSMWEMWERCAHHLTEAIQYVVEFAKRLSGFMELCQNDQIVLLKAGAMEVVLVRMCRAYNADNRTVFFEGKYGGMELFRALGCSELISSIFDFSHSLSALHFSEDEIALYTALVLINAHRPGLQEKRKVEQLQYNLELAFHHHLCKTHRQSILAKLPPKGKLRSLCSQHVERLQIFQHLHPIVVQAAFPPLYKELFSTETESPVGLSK

| IC50 (human RORγt LBD) | inhibition at 6 µM (human RORγt LBD) | Kd [1] | RORγt reporter Assay, % inhibition @ 6 μM (human RORγt LBD) | SMILES |
| --- | --- | --- | --- | --- |
| 0.12 µM | 102% | 0.076 µM |  | COc1nc2ccc(C(O)(c3ccc(C#N)cc3)c3cncn3C)cc2c(C#N)c1Cc1ccc(-n2cccn2)cc1 (single isomer, unassigned) [Example 76B, 3-(4-(1H-Pyrazol-1-yl)benzyl)-6-((4-cyanophenyl)(hydroxy)(1-methyl-1H-imidazol-5-yl)methyl)-2-methoxyquinoline-4-carbonitrile] |
| 0.091 µM | 96% | 0.0048 µM |  | COc1nc2c(C)cc(C(O)(c3ccc(C(F)(F)F)nc3)c3cncn3C)cc2c(Cl)c1Cc1ccc(-n2cccn2)cc1 (stereo not drawn) [Example 29A, (3-(4-(1H-Pyrazol-1-yl)benzyl)-4-chloro-2-methoxy-8-methylquinolin-6-yl)(1-methyl-1H-imidazol-5-yl)(6-(trifluoromethyl)pyridin-3-yl)methanol] |
| 0.48 µM | 85% | 0.22 µM |  | COc1nc2ccc(C(O)(c3ccc(N(C)C)cc3)c3cncn3C)cc2c(Cl)c1Cc1ccc(-n2cccn2)cc1 (stereo not drawn) [Example 26, (3-(4-(1H-Pyrazol-1-yl)benzyl)-4-chloro-2-methoxyquinolin-6-yl)(4-(dimethylamino)phenyl)(1-methyl-1H-imidazol-5-yl)methanol.TFA] |
| 0.012 µM | 102% | 0.00029 µM |  | COc1nc2c(C)cc(C(O)(c3cncn3C)c3cncn3C)cc2c(Cl)c1Cc1ccc(-n2cccn2)cc1 [Example 56, (3-(4-(1H-Pyrazol-1-yl)benzyl)-4-chloro-2-methoxy-8-methylquinolin-6-yl)bis(1-methyl-1H-imidazol-5-yl)methanol] |
| 0.044 µM | 115% | 0.018 µM |  | CON(C)c1nc2ccc(C(O)(c3ccc(C(F)(F)F)nc3)c3cncn3C)cc2c(Cl)c1Cc1ccc(-n2cccn2)cc1 (stereo not drawn) [Example 67A, (3-(4-(1H-Pyrazol-1-yl)benzyl)-4-chloro-2-(methoxy(methyl)amino)quinolin-6-yl)(1-methyl-1H-imidazol-5-yl)(6-(trifluoromethyl)pyridin-3-yl)methanol TFA?] |

Continued, compound first:

| SMILES | IC50 (human RORγt LBD) | inhibition at 6 µM (human RORγt LBD) | Kd [1] | RORγt reporter Assay, % inhibition @ 6 μM (human RORγt LBD) |
| --- | --- | --- | --- | --- |
| CCOc1nc2ccc(C(O)(c3cncs3)c3cncn3C)cc2cc1Cc1ccc(OC)cc1 (stereo not drawn) [Example 24, (2-Ethoxy-3-(4-methoxybenzyl)quinolin-6-yl)(1-methyl-1H-imidazol-5-yl)(thiazol-5-yl)methanol.TFA] | > 6 µM | 35% | 0.75 µM |  |
| COc1nc2ccc(C(O)(c3ccc(Cl)cc3)c3cncn3C)cc2c(Cl)c1Cc1cc2ccccc2s1 (single isomer, unassigned) [Example 36B, (3-(benzo[b]thiophen-2-ylmethyl)-4-chloro-2-methoxyquinolin-6-yl)(4-chlorophenyl)(1-methyl-1H-imidazol-5-yl)methanol] | 0.74 µM |  | 0.4 µM | 62% |
| COc1nc2ccc(C(O)(c3ccc(C#N)cc3)c3cncn3C)cc2c(C#N)c1Cc1ccc(C(F)(F)F)cc1 (stereo not drawn) [Example 96A, 6-((4-cyanophenyl)(hydroxy)(1-methyl-1H-imidazol-5-yl)methyl)-2-methoxy-3-(4-(trifluoromethyl)benzyl)quinoline-4-carbonitrile] | 0.0078 µM | 99% | 0.0019 µM |  |
| CNC(=O)c1nc2ccc(C(O)(c3ccc(F)cc3)c3cncn3C)cc2c(C(F)(F)F)c1Cc1ccccc1 (stereo not drawn) [Example 51, 3-Benzyl-6-((4-fluorophenyl)(hydroxy)(1-methyl-1H-imidazol-5-yl)methyl)-N-methyl-4-(trifluoromethyl)quinoline-2-carboxamide] | 1.9 µM | 98% | 1.1 µM |  |
| CCOc1nc2ccc(C(O)(c3ccc(OC)nc3)c3cncs3)cc2c(Cl)c1Cc1ccccc1 (stereo not drawn) [Example 19, (3-Benzyl-4-chloro-2-ethoxyquinolin-6-yl)(6-methoxypyridin-3-yl)(thiazol-5-yl)methanol] | 6.6 µM | 57% | 0.0027 µM |  |
| Cn1cncc1C(O)(c1ccc(C(F)(F)F)nc1)c1ccc2nc(C#N)c(Cc3ccc(-n4cccn4)cc3)cc2c1 (single isomer, unassigned) [Example 70C, 3-(4-(1H-Pyrazol-1-yl)benzyl)-6-(hydroxy(1-methyl-1H-imidazol-5-yl)(6-(trifluoromethyl)pyridin-3-yl)methyl)quinoline-2-carbonitrile] | 1.6 µM |  | 16 µM | 85% |
| Cc1ccc(C(O)(c2ccc3nc(C#N)c(Cc4ccc(C(F)(F)F)cc4)c(C#N)c3c2)c2cnnn2C)c(C)n1 (single isomer, unassigned) [Example 88B, 6-((2,6-Dimethylpyridin-3-yl)(hydroxy)(1-methyl-1H-1,2,3-triazol-5-yl)methyl)-3-(4-(trifluoromethyl)benzyl)quinoline-2,4-dicarbonitrile] | 0.14 µM | 96% | 0.029 µM |  |
| COc1nc2ccc(C(O)(c3ccccc3)C3CCN(C(C)=O)CC3)cc2c(Cl)c1Cc1ccc(-n2cccn2)cc1 (racemic) [Example 83A, 1-(4-((3-(4-(1H-Pyrazol-1-yl)benzyl)-4-chloro-2-methoxyquinolin-6-yl)(hydroxy)(phenyl)methyl)piperidin-1-yl)ethanone] | 0.039 µM | 104% | 0.012 µM |  |
| COc1nc2ccc(C(O)(c3cnnn3C)c3cnc(C)n3C)cc2c(C#N)c1Cc1ccc(C(F)(F)F)cc1 (stereo not drawn) [Example 81A, 6-((1,2-Dimethyl-1H-imidazol-5-yl)(hydroxy)(1-methyl-1H-1,2,3-triazol-5-yl)methyl)-2-methoxy-3-(4-(trifluoromethyl)benzyl)quinoline-4-carbonitrile] | 0.0021 µM | 104% | 0.00012 µM |  |
| OC(c1ccc(F)cc1)(c1cccnc1)c1ccc2nc(Cl)c(Cc3ccc(-n4cccn4)cc3)c(Cl)c2c1 (stereo not drawn) [Example 46, (3-(4-(1H-Pyrazol-1-yl)benzyl)-2,4-dichloroquinolin-6-yl)(4-fluorophenyl)(pyridin-3-yl)methanol] | 0.052 µM | 89% | 0.022 µM |  |
| COc1nc2ccc(C(O)(c3ccc(N(C)C)cc3)c3cccnc3)cc2c(Cl)c1Cc1ccc(-n2cccn2)cc1 (stereo not drawn) [Example 42, (3-(4-(1H-Pyrazol-1-yl)benzyl)-4-chloro-2-methoxyquinolin-6-yl)(4-(dimethylamino)phenyl)(pyridin-3-yl)methanol] | 0.18 µM | 96% | 0.36 µM |  |
| CCN(CC)c1nc2ccc(C(O)(c3ccc(Cl)cc3)c3cncn3C)cc2c(Cl)c1Cc1ccc(-n2cccn2)cc1 (single isomer, unassigned) [Example 75B, (3-(4-(1H-Pyrazol-1-yl)benzyl)-4-chloro-2-(diethylamino)quinolin-6-yl)(4-chlorophenyl)(1-methyl-1H-imidazol-5-yl)methanol] | > 6 µM |  | 8.6 µM | 39% |
| Cn1cncc1C(O)(c1ccc(C(F)(F)F)nc1)c1ccc2nc(N3CCC3)c(Cc3ccc(C(F)(F)F)cc3)c(Cl)c2c1 (racemic) [Example 92A, (2-(Azetidin-1-yl)-4-chloro-3-(4-(trifluoromethyl)benzyl)quinolin-6-yl)(1-methyl-1H-imidazol-5-yl)(6-(trifluoromethyl)pyridin-3-yl)methanol] | 0.029 µM | 100% | 0.0025 µM |  |
